Experimental data from PMC10394672, “Crystal structure of dihydrofolate reductase from the emerging pathogenic fungus Candida auris” (Acta Crystallographica. Section D, Structural Biology, 2023).
pIC50: −log10 of the molar value. ≈ marks a conversion by molar mass, not a printed value. Read-outs that look alike come from different tables or passages of the source.

What was measured:
C. glabrata = system: T1, C. glabrata; assay: microbe, parasite or virus in culture; parameters: species or system Candida yeast; settings: Nakaseomyces glabratus, 24 h, 50% growth inhibition end point
T1 construct: ATCC 2001
Procedure: (§1) The antifungal activity of DHFR inhibitors was evaluated against C. albicans (SC 5314), C. glabrata (ATCC 2001) and C. auris (CBS 12766) by the broth microdilution technique (CLSI, 2017[▸]). DHFR inhibitors were serially diluted (1:2) in RPMI 1640 medium buffered with 0.165 M 3-(N-morpholino)propanesulfonic acid in 96-well flat-bottom plates and yeast suspension was added to the wells to obtain a final yeast concentration of 0.5–2.5 × 10^3 CFU ml^−1 and final concentrations of DHFR inhibitors in the range 1–500 µg ml^−1. […] Studies were then performed against Candida spp. yeasts, with the addition of two more antifolates: diaveridine (DIA) and pemetrexed (PMX) (Supplementary Table S1). The inhibitory effect of these inhibitors on the fungal growth of C. albicans, C. glabrata and C. auris was tested using the broth microdilution assay. […] (Supplementary Table S1), including C. auris, supporting the lack of affinity seen in the IC50 assay (Table 2 ▸).

C. albicans = system: T2, C. albicans; assay: microbe, parasite or virus in culture; parameters: species or system Candida yeast; settings: Candida albicans, 24 h, 50% growth inhibition end point
T2 construct: SC 5314
Procedure: as §1

C. auris = system: T3, C. auris; assay: microbe, parasite or virus in culture; parameters: species or system Candida yeast; settings: Candidozyma auris, 24 h, 50% growth inhibition end point
T3 construct: CBS 12766
Procedure: as §1

[1] = target: T4, dihydrofolate reductase (CauDHFR) (Candidozyma auris, UniProt A0A0L0P1H8); assay: ([…] Å); DSF shift +[…] °C; NADPH-consumption IC50; format: biochemical
T4 construct: gene QG37_02791; His-tag-removed CauDHFR
T4 sequence (A0A0L0P1H8 1-204): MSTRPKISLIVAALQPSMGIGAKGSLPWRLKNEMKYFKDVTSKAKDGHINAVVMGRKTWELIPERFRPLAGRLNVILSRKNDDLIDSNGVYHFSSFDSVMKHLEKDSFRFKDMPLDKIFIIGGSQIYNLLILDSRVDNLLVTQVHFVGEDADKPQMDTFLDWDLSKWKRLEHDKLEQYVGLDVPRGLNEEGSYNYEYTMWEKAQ

COc1cc(Cc2cnc(N)nc2N)cc(OC)c1OC [TMP, trimethoprim]
MIC (C. glabrata; read-out: MIC trimethoprim): 500 µg/mL (≈ 1720 µM) | MIC (C. albicans; read-out: MIC trimethoprim): 500 µg/mL (≈ 1720 µM) | MIC (C. auris; read-out: MIC trimethoprim): > 500 µg/mL

COc1ccc(Cc2cnc(N)nc2N)cc1OC [diaveridine]
MIC (C. glabrata; read-out: MIC diaveridine): 500 µg/mL (≈ 1920 µM) | MIC (C. albicans; read-out: MIC diaveridine): > 500 µg/mL | MIC (C. auris; read-out: MIC diaveridine): > 500 µg/mL

CCc1nc(N)nc(N)c1-c1ccc(Cl)cc1 [PYR, pyrimethamine]
MIC (C. glabrata; read-out: MIC pyrimethamine): 62.5 µg/mL (≈ 251 µM) | MIC (C. albicans; read-out: MIC pyrimethamine): 62.5 µg/mL (≈ 251 µM) | MIC (C. auris; read-out: MIC pyrimethamine): 125 µg/mL (≈ 503 µM)

CN(Cc1cnc2nc(N)nc(N)c2n1)c1ccc(C(=O)N[C@@H](CCC(=O)O)C(=O)O)cc1 [MTX, methotrexate]
MIC (C. glabrata; read-out: MIC methotrexate): > 500 µg/mL | MIC (C. albicans; read-out: MIC methotrexate): 250 µg/mL (≈ 550 µM) | MIC (C. auris; read-out: MIC methotrexate): > 500 µg/mL

CC1(C)N=C(N)N=C(N)N1c1ccc(Cl)cc1 [CYG, cycloguanil]
MIC (C. glabrata; read-out: MIC cycloguanil): 500 µg/mL (≈ 1990 µM) | MIC (C. albicans; read-out: MIC cycloguanil): 500 µg/mL (≈ 1990 µM) | MIC (C. auris; read-out: MIC cycloguanil): > 500 µg/mL | pIC50 [1]: 3.40

Nc1nc2[nH]cc(CCc3ccc(C(=O)N[C@@H](CCC(=O)O)C(=O)O)cc3)c2c(=O)[nH]1 [pemetrexed]
MIC (C. glabrata; read-out: MIC pemetrexed): 500 µg/mL (≈ 1170 µM) | MIC (C. albicans; read-out: MIC pemetrexed): 500 µg/mL (≈ 1170 µM) | MIC (C. auris; read-out: MIC pemetrexed): > 500 µg/mL
